As usually defined, the kinetic solubility is the concentration staying in solution when a stock, usually in DMSO, is diluted into the medium.

This note sets out measurements from PubChem BioAssay AID1996.

Values after ≈ are worked out from the molar mass of the structure shown.

The conditions of this data set: buffer; pH 7.4; 200.0 µM.
Consider `CC(OC(=O)c1ccco1)C(=O)NC1CCCC1` (configuration not stated), for which the solubility (kinetic) was above 37.7 µg/mL.

As for `COc1ccc(-c2cccc(C(=O)N3CCOCC3)c2)cc1`, the kinetic solubility was 40 µg/mL (≈ 135 µM).

The compound `CC1CN(C(=S)Nc2ccccc2F)CC(C)O1` (configuration not stated) displayed a solubility (kinetic) above 40.3 µg/mL.

`NC(=O)C1CCN(C(=O)CCC(=O)c2cccs2)CC1`: the solubility (kinetic) is above 44.2 µg/mL.

Compound `O=C1N=C(N2CCOCC2)S/C1=C\c1ccncc1` registered a kinetic solubility above 41.3 µg/mL.

`O=C(N/N=C/c1cccc2ccccc12)c1cccnc1`: the solubility (kinetic) is above 41.3 µg/mL.

The compound `CC(C)NC(=O)N(Cc1ccc(Cl)cc1)Cc1cccs1` displayed a solubility (kinetic) of 37 µg/mL (≈ 115 µM).

The compound `O=C1/C(=C\c2ccsc2)NC(=S)N1c1ccccc1` returned a solubility (kinetic) of 4.5 µg/mL (≈ 15.7 µM).

As to `O=C(COC(=O)/C=C/c1ccc(F)cc1)NCc1ccc2c(c1)OCO2`, the solubility (kinetic) amounted to 4.9 µg/mL (≈ 13.7 µM).

The compound `C=CCn1c(=NC(=O)c2cccs2)sc2cccc(OC)c21` registered a kinetic solubility below 0.4 µg/mL.

The compound `O=C(Nc1ccc([N+](=O)[O-])cc1)N1CCc2ccccc2C1` displayed a solubility (kinetic) of 22 µg/mL (≈ 74 µM).

For `COc1ccc(/C=C/C2=CCN(C)CC2)cc1.Cl`, the kinetic solubility is above 39.9 µg/mL.

For the compound `COCCCNC(=O)C(CC(N)=O)NC(=O)OCc1ccccc1` (configuration not stated), the kinetic solubility is above 50.6 µg/mL.

`COc1cccc(Oc2ccc(C(F)(F)F)cc2NC(=O)CN2C(=O)NC3(CCCC3)C2=O)c1` yielded a kinetic solubility of 2.7 µg/mL (≈ 5.66 µM).

Compound `CC(=O)N1CCC2(CC1)NC(=O)N(c1ccccc1)N2` came in with a solubility (kinetic) above 41.1 µg/mL.

The compound `CNC(=O)COC(=O)/C=C/c1cccc(F)c1` registered a solubility (kinetic) above 35.6 µg/mL.

`Cc1ccc2c(c1)/C(=C/c1ccccc1C)C(=O)N2` had a kinetic solubility of 2.8 µg/mL (≈ 11.2 µM).

`COc1ccc(/C=C/C(=O)OCC(=O)N2CCCC2)c(OC)c1` yielded a kinetic solubility above 47.9 µg/mL.

Compound `COc1ccc(NC(=O)c2cc(-c3ccco3)on2)c(OC)c1` displayed a solubility (kinetic) of 0.8 µg/mL (≈ 2.55 µM).

Turning to `c1ccc(-c2csc(Nc3ccccn3)n2)cc1`, the kinetic solubility is 0.3 µg/mL (≈ 1.18 µM).

Consider `Nc1nc(CCl)nc(N(c2ccccc2)c2ccccc2)n1`, for which the solubility (kinetic) was determined as 7.5 µg/mL (≈ 24.1 µM).

`CCc1ccc(N2CN(Cc3cccnc3)CNC2=S)cc1`: the solubility (kinetic) was above 46.9 µg/mL.

Consider `Cc1ccc(C2(c3ccc(C)cc3)CC2C(=O)NC(C)C)cc1` (configuration not stated), for which the kinetic solubility stood at 1 µg/mL (≈ 3.25 µM).

Turning to `COc1ccc(N2CCCC2)c(NC(=O)COc2ccccc2Cl)c1`, the solubility (kinetic) amounted to 1 µg/mL (≈ 2.77 µM).

Take `Cc1ccc(N/C=C/C(=O)c2ccccc2)cc1Br`: the kinetic solubility was below 0.7 µg/mL.

With `Cn1cc(SCC(=O)NC2CCCCC2)c2ccccc21`, the kinetic solubility amounted to 9.5 µg/mL (≈ 31.4 µM).

`CCN1/C(=C2\OC(=S)N(C)C2=O)C=Cc2ccccc21` had a solubility (kinetic) of 0.3 µg/mL (≈ 1.05 µM).

For `CC1CCc2[nH]c3ccc(C(=O)O)cc3c2C1` (configuration not stated), the solubility (kinetic) was above 34.4 µg/mL.

In turn, `COc1ccc(C2c3ccsc3CCN2C(C)=O)cc1` (configuration not stated) yielded a kinetic solubility of 32.2 µg/mL (≈ 112 µM).

In turn, `O=C(O)CSc1nc2ccccc2n1-c1ccccc1` showed a solubility (kinetic) above 42.6 µg/mL.

Take `Cc1ccc2c(c1)C1CN(C)CCC1N2C(=S)Nc1ccc(OC(F)F)cc1` (configuration not stated): the solubility (kinetic) came to 44.8 µg/mL (≈ 111 µM).

For the compound `COc1ccc(C(=O)COc2ncnc3cc(Cl)ccc23)cc1`, the kinetic solubility is below 0.4 µg/mL.

`CCC(=O)Nc1ccc(NCc2ccc(-c3ccccc3)cc2)cc1` displayed a solubility (kinetic) of 28.6 µg/mL (≈ 86.6 µM).

Take `NS(=O)(=O)c1ccc(NC(=S)NC(=O)C2CCCCC2)cc1`: the solubility (kinetic) was above 51.2 µg/mL.

Compound `O=C(Nc1ccc([N+](=O)[O-])cc1)c1ccccc1` gave a solubility (kinetic) of 2.2 µg/mL (≈ 9.08 µM).

`NC(=O)CSc1nc2cc(S(=O)(=O)N3CCOCC3)ccc2o1`: the solubility (kinetic) is above 53.6 µg/mL.

Compound `CCN1CSC(=S)N(Cc2ccccc2)C1` registered a solubility (kinetic) of 37.5 µg/mL (≈ 149 µM).

Compound `CCOc1ccc(CN(C)C(=O)c2ccc(=O)[nH]c2)cc1` displayed a kinetic solubility of 29.3 µg/mL (≈ 102 µM).

The compound `c1ccc(CSc2cc3ccccc3[nH]2)cc1` gave a solubility (kinetic) of 2.8 µg/mL (≈ 11.7 µM).

`O=C(NC1CCN(Cc2ccccc2Cl)CC1)c1ccccc1` yielded a solubility (kinetic) of 47.6 µg/mL (≈ 145 µM).

In the case of `COc1ccc(N=C2NC(=O)C(CO)(CO)S2)cc1`, the kinetic solubility is above 42.3 µg/mL.

The compound `COc1ccc(N2CCN(c3cc(C)c4ccc(C)cc4n3)CC2)cc1` had a solubility (kinetic) of 1.1 µg/mL (≈ 3.17 µM).
